The record followed here is patent publication US20260317333A1, “Heteroaryl Compounds as Ligand Directed Degraders of IRAK4” (Celgene Corporation, priority 2023, published 2026).

For experiment [1], the target named is T1, IRAK4 (Homo sapiens, UniProt Q9NWZ3).
T1 sequence (Q9NWZ3 1-460): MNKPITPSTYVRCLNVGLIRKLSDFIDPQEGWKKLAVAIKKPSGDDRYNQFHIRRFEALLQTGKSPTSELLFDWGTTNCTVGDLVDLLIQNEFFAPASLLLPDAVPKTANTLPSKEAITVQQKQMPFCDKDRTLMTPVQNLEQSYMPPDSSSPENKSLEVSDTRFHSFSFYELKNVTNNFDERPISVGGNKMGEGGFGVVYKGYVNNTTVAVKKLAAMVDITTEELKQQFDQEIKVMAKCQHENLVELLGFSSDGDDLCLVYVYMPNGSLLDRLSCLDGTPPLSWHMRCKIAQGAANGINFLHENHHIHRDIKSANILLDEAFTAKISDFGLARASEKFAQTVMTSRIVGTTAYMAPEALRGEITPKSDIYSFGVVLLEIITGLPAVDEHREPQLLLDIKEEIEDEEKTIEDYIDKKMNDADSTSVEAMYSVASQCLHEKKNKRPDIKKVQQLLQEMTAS
Nature of the experiment: ALE THP1 HTRF (IRAK4 degradation in THP1 cells, HTRF with anti-IRAK4 antibodies). It counts as cell-based. Also on record: THP1 Homogeneous Time Resolved Fluorescence (ALE THP1 HTRF) Procedure; endogenous in cells; host or cells: THP1. Particulars: THP1 cell lysate; for DC50: read-out: ALE THP1 HTRF EC50. On the procedure: Cell culture media was prepared in a tissue culture hood in a sterile environment by adding 10% FBS and 1% Penicillin Streptomycin to 500 mL no phenol red RPMI 1640 media. The media was filtered through a Nalgene Bottle Top Filter and stored at 4° C.
For Homogenous Time Resolved Fluorescence (HTRF) assays, a Cisbio HTRF kit was used, which included: Lysis Buffer #1 4×, Blocking Reagent #3 100×, 20× Antibody 1 (Anti-IRAK4 d2), 20× Antibody 2 (Anti-IRAK4 k), and Detection Buffer.
4× Lysis Buffer was stored at 4° C. For use as 1× Lysis buffer, the 4× solution was diluted with de-ionized water (distilled water, Gibco Cat. #15230279) and 100× Blocking Reagent in a 1:3:0.04 volume ratio.
20× Antibody Solution aliquots were stored at −80° C. and the Detection Buffer was stored at 4° C. For use as a 1× Antibody Solution, the 20× Antibody Solution aliquot was diluted with Detection Buffer in a 1:19 volume ratio.
Cells were lysed at room temperature for 45 min with shaking. A BCA protein assay was performed and normalization was conducted to the desired total protein concentration with 1× lysis buffer. Next, 1× Antibody Solutions were prepared by adding 380 μL Detection Buffer to 20 μL 20× Antibody Solution aliquots and mixing well. 1× Antibody Solutions were combined 1:1 and briefly vortexed. For control wells, 20 μL 1× anti IRAK4-k Antibody Solution was saved. The 384-well plate (ProxiPlate-384 Plus, Perkin Elmer Cat. #6008289) was loaded by adding 4 μL of the mixed Antibody Solution to empty wells using a single channel repeater. Using a multi-channel repeater, 16 μL lysate was added per well, and any bubbles that were formed were popped with 20 μL pipette tips and Kimwipe edges. In column 10, triplicates of each control were prepared. In wells A10, B10, and C10, buffer control was prepared by adding 16 μL Lysis Buffer and 4 μL Detection Buffer. In wells D10, E10, and F10, cryptate control was prepared by adding 16 μL Lysis Buffer, 2 μL Detection Buffer, and 2 μL 1× anti-IRAK4-k Antibody Solution. In wells G10, H10, and I10, a negative control was prepared by adding 16 μL Lysis Buffer and 4 μL mixed Antibody Solution. The plate was sealed with a clear seal and covered with an aluminum lid. The plate was spun down at 800 g for 5 min and incubated in the dark at room temperature overnight. The next day, the plate was spun down at 800 g for 5 min. The samples were analyzed by a plate reader (Envision, PerkinElmer) using the Desnor 384 HTRF program.
A general note: TR-FRET usually uses a lanthanide donor and a delayed reading to cut background.

Experiment [2] addresses T1, IRAK4. Nature of the experiment: IRAK4 PhosphoSens Biochemical Assay (BIOCHEM). Particulars: 200 μM ATP; 10 μM peptide substrate AQT0326; 1 nM IRAK4; room temperature; 240 minutes. The procedure:
The PhosphoSens® biochemical assay was performed as described by the vendor (AssayQuant Technologies Inc. Marlborough, MA). A 1.25× stock solution of IRAK4 (PV4002, ThermoFisher Scientific, Waltham, MA) and a 5× stock solution of ATP and Sox conjugated peptide substrate, AQT0326 (CSKS-AQT0326B, AssayQuant Technologies), were prepared in 1× kinase reaction buffer consisting of 50 mM HEPES, pH 7.5, 0.01% Brij-35, 0.5 mM EGTA, 20 mM MgCl2 and 1 mM DTT. 10 μL of the ATP and substrate solution mix, for a final concentration of 200 μM ATP and 10 μM peptide substrate, was added to a Corning 3574 384-well, white, non-binding surface microtiter plate containing 0.5 μL of serially diluted test compounds prepared in DMSO. The reactions were started with the addition of 40 μL of the enzyme solution, for a final IRAK4 concentration of 1 nM, and monitored every 71 seconds for 240 minutes at λEX 360/λEM 485 in a BioTek Synergy H4 plate reader (Agilent Technologies, Santa Clara, CA) at room temperature. The initial linear portions of the progress curves were fit according to a linear equation to yield the slopes and converted to % inhibition based on a value of 100% activity for the no inhibitor treated control. IC50 values of each compound were obtained by fitting the % inhibition-compound concentration curves using Dotmatics software (Dotmatics, Bishops Stortford, Hertfordshire, England).

Structures can show the parent of a compound that is named as a salt.

`N[C@@H]1C[C@@H](F)CN(c2ccn3ncc(C(=O)Nc4cn([C@H]5CC[C@H](C(=O)N6CCC(CNc7cccc(C8CCC(=O)NC8=O)c7)CC6)CC5)nc4C(F)(F)F)c3n2)C1` (stereo partly drawn) [Compound P-1, N-[1-[4-[4-[[3-(2,6-dioxo-3-piperidyl)anilino]methyl]piperidine-1-carbonyl]cyclohexyl]-3-(trifluoromethyl)pyrazol-4-yl]-5-[(3R,5R)-3-amino-5-fluoro-1-piperidyl]pyrazolo[1,5-a]pyrimidine-3-carboxamide hydrochloride salt]: at IRAK4 [1], the “ALE THP1 HTRF YMIN” value worked out at 10% and the DC50 was found to be 7 nM. Moreover, the IC50 (commonly the midpoint of a concentration-inhibition curve) on IRAK4 [2] was determined as 0.4 nM.

`N[C@@H]1C[C@@H](F)CN(c2ccn3ncc(C(=O)Nc4cn([C@H]5CC[C@H](C(=O)N6CCC(CNc7ccc(C8CCC(=O)NC8=O)cc7)CC6)CC5)nc4C(F)(F)F)c3n2)C1` (stereo partly drawn) [Compound P-2, N-[1-[4-[4-[[4-(2,6-Dioxo-3-piperidyl)anilino]methyl]piperidine-1-carbonyl]cyclohexyl]-3-(trifluoromethyl)pyrazol-4-yl]-5-[(3R,5R)-3-amino-5-fluoro-1-piperidyl]pyrazolo[1,5-a]pyrimidine-3-carboxamide hydrochloride]: on IRAK4 [1], the “ALE THP1 HTRF YMIN” value is on record as 68% and the DC50 was determined as 96 nM. The IC50 at IRAK4 [2] stood at 0.3 nM.

`N[C@@H]1C[C@@H](F)CN(c2ccn3ncc(C(=O)Nc4cn([C@H]5CC[C@H](CN6CCC(CNc7ccc(C8CCC(=O)NC8=O)cc7)CC6)CC5)nc4C(F)(F)F)c3n2)C1` (stereo partly drawn) [Compound P-3]: at IRAK4 [1], the “ALE THP1 HTRF YMIN” value worked out at 81% and the DC50 was determined as 177 nM. For the same compound, the IC50 at IRAK4 [2] was 0.3 nM.

For `N[C@@H]1C[C@@H](F)CN(c2ccn3ncc(C(=O)Nc4cn([C@H]5CC[C@H](C(=O)N6CCC(Nc7ccc(C8CCC(=O)NC8=O)cc7)CC6)CC5)nc4C(F)(F)F)c3n2)C1` (stereo partly drawn) [Compound P-7], on IRAK4 [1], the “ALE THP1 HTRF YMIN” value amounted to 52% and the DC50 is greater than 10000 nM. Besides, at IRAK4 [2], the IC50 came to 0.3 nM.

For the compound `N[C@@H]1C[C@@H](F)CN(c2ccn3ncc(C(=O)Nc4cn([C@H]5CC[C@H](C(=O)N6CCC(Nc7cccc(C8CCC(=O)NC8=O)c7)CC6)CC5)nc4C(F)(F)F)c3n2)C1` (stereo partly drawn) [Compound P-9], on IRAK4 [1], the “ALE THP1 HTRF YMIN” value turned out to be 86% and the DC50 is greater than 10000 nM. Besides, the IC50 at IRAK4 [2] was determined as 0.3 nM.

As for `N[C@@H]1C[C@@H](F)CN(c2ccn3ncc(C(=O)Nc4cn([C@H]5CC[C@H](CN6CCN(c7ccc(C8CCC(=O)NC8=O)cc7)CC6)CC5)nc4C(F)(F)F)c3n2)C1` (stereo partly drawn) [Compound P-10], on IRAK4 [1], the “ALE THP1 HTRF YMIN” value stood at 20% and the DC50 was 964 nM. For the same compound, the IC50 on IRAK4 [2] is 0.6 nM.

`N[C@@H]1C[C@@H](F)CN(c2ccn3ncc(C(=O)Nc4cn([C@H]5CC[C@H](CCN6CCN(c7ccc(C8CCC(=O)NC8=O)cc7)CC6)CC5)nc4C(F)(F)F)c3n2)C1` (stereo partly drawn) [Compound P-11, 5-((3R,5R)-3-Amino-5-fluoropiperidin-1-yl)-N-(1-((1r,4r)-4-(2-(4-(4-(2,6-dioxopiperidin-3-yl)phenyl)piperazin-1-yl)ethyl)cyclohexyl)-3-(trifluoromethyl)-1H-pyrazol-4-yl) pyrazolo[1,5-a]pyrimidine-3-carboxamide hydrochloride]: at IRAK4 [1], the “ALE THP1 HTRF YMIN” value turned out to be 19% and the DC50 was determined as 15 nM. At IRAK4 [2], the IC50 is 0.4 nM.
